Results from PubChem BioAssay (NCI).
“And” between values parts separate entries of the source, which are not always exact repeats. Equal values may be shown once.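 Compound exposure: 48 hours, 5 concentrations, 96-well plates. Here, GI50 denotes the concentration required for 50% inhibition of growth. TGI: concentration producing complete growth inhibition.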

Assays:
Test in all cases: DTP human tumour cell line panel, 48 h
[1] = test system: OVCAR-3 ovarian
[2] = test system: HOP-18 NSCLC
[3] = test system: TK-10 renal
[4] = test system: SN12C renal
[5] = test system: M14 melanoma
[6] = test system: K-562 leukemia
[7] = test system: KM20L2 colon
[8] = test system: T-47D breast
[9] = test system: NCI/ADR-RES ovarian
[10] = test system: DLD-1 colon

Row | SMILES | TGI [1] | TGI [2] | TGI [3] | TGI [4] | TGI [5] | TGI [6] | TGI [7] | TGI [8] | TGI [9] | TGI [10] | GI50 [3] | GI50 [8] | GI50 [5] | GI50 [1] | GI50 [4] | GI50 [6] | GI50 [9] | GI50 [10] | GI50 [7]
1 | COc1cc(OC)c(OC)cc1/C=N/NC(=O)N/N=C/c1cc(OC)c(OC)cc1OC | > 100 µM | > 100 µM | > 100 µM | > 100 µM | > 100 µM | > 100 µM | > 100 µM | – | – | – | – | – | – | – | – | – | – | – | –
2 | COc1ccc(/C=C\c2cc(OC)c(OC)c(OC)c2)cc1OCC(=O)O | 8.25 µM | > 100 µM | > 100 µM | > 100 µM | 62.9 µM | > 100 µM | > 100 µM | > 100 µM | 5.39 µM | > 90.2 µM | – | – | – | – | – | – | – | – | –
3 | CC[C@@H]1NC(C(=O)OC)Cc2c1[nH]c1ccccc21 (some centres not stated) | > 100 µM | > 100 µM | > 100 µM | > 100 µM | > 100 µM | > 100 µM | > 100 µM | – | – | > 100 µM | – | – | – | – | – | – | – | – | –
4 | O=Cc1cc2c(cc1-c1cc3c(cc1C=O)OCO3)OCO2 | > 100 µM | > 100 µM | > 100 µM | > 100 µM | > 100 µM | > 100 µM | > 100 µM | – | – | > 100 µM | – | – | – | – | – | – | – | – | –
5 | Cc1cc2c(cc1C)[n+](=O)cc(C(=O)C/C(=N/NC(=S)NN)C(=O)Nc1cccc(C(F)(F)F)c1)n2[O-] | > 100 µM | > 100 µM | > 100 µM | > 100 µM | > 100 µM | > 100 µM | – | – | – | > 100 µM | – | – | – | – | – | – | – | – | –
6 | CC12c3ccccc3C(OC=O)(c3ccccc31)C1(C)c3ccccc3C2(OC=O)c2ccccc21 | > 100 µM | > 100 µM | > 100 µM | > 100 µM | > 100 µM | > 100 µM | > 100 µM | – | – | > 100 µM | – | – | – | – | – | – | – | – | –
7 | Cc1nc2c(N)ncnc2o1 | > 100 µM | > 100 µM | > 100 µM | > 100 µM | > 100 µM | > 100 µM | > 100 µM | – | – | > 100 µM | – | – | – | – | – | – | – | – | –
8 | COC(=N)c1csc(C2OC(CO)C(O)C2O)n1 (configuration not stated) | > 100 µM | > 100 µM | > 100 µM | > 100 µM | > 100 µM | > 100 µM | > 100 µM | – | – | > 100 µM | – | – | – | – | – | – | – | – | –
9 | O=C1C=C(Nc2ccc(Cl)cc2C(=O)c2ccccc2)c2ccccc2C1=O | > 100 µM | > 100 µM | > 100 µM | > 100 µM | > 100 µM | > 100 µM | > 100 µM | – | – | > 100 µM | – | – | – | – | – | – | – | – | –
10 | COCOCCC#CCO | > 100 µM | > 100 µM | > 100 µM | > 100 µM | > 100 µM | > 100 µM | > 100 µM | – | – | > 100 µM | – | – | – | – | – | – | – | – | –
11 | Nc1nc(Cl)nc2c1ncn2C1CC(O)C(CO)O1 (configuration not stated) | > 100 µM | > 100 µM | > 100 µM | > 100 µM | 0.509 µM | > 100 µM | > 100 µM | > 100 µM | > 100 µM | > 100 µM | 50.2 µM | 5.75 µM | 0.186 µM | – | – | – | – | – | –
12 | CCCCNCCCNCCCNC(=O)c1csc(-c2csc(CCNC(=O)C(NC(=O)C(C)C(O)C(C)NC(=O)C(NC(=O)c3nc(C(CC(N)=O)NCC(N)C(N)=O)nc(N)c3C)C(OC3OC(CO)C(O)C(O)C3OC3OC(CO)C(O)C(OC(N)=O)C3O)c3cnc[nH]3)C(C)O)n2)n1 (configuration not stated) | 50 µM and 22.9 µM | > 100 µM | > 50 µM and 58.2 µM | 50 µM and 8.53 µM | 50 µM and 15.9 µM | 50 µM and > 100 µM | > 100 µM | 50 µM | – | > 100 µM | > 50 µM | – | 34.3 µM | 30.3 µM | 1.13 µM | 19.6 µM | – | – | –
13 | NC(=S)N/N=C/c1ncccc1O | > 59.3 µM and 123 µM | 141 µM | 292 µM | 24.1 µM and 45.2 µM | 4.72 µM and 2.69 µM | > 1000 µM | 76.5 µM | > 823 µM | 38 µM and 6.56 µM | > 774 µM | 11.2 µM | – | 0.684 µM | 2.77 µM | 2.04 µM | 2.92 µM | 2.21 µM | 3.79 µM | 3.74 µM
14 | CN1Nc2ccccc2CC1=O | > 100 µM | > 100 µM | > 100 µM | > 100 µM | > 100 µM | > 100 µM | > 100 µM | – | – | > 100 µM | – | – | – | – | – | – | – | – | –
15 | Oc1oc(C(=C2N=c3ccccc3=N2)c2ccc(Cl)cc2)c(O)c1-c1ccc(Cl)cc1 | > 100 µM | > 100 µM | 11.5 µM | > 100 µM | 18 µM | > 100 µM | 10.2 µM | – | – | > 100 µM | – | – | – | – | – | – | – | – | –
16 | CCOC(=O)Cc1csc(Nc2ccccc2[N+](=O)[O-])n1 | > 100 µM | > 100 µM | > 100 µM | > 100 µM | > 100 µM | > 100 µM | > 100 µM | – | – | – | – | – | – | – | – | – | – | – | –
17 | C/C(=N\NC(N)=O)c1sc(-c2nc(C)c(/C(C)=N/NC(N)=O)s2)nc1C | > 100 µM | > 100 µM | > 100 µM | > 100 µM | > 100 µM | > 100 µM | > 100 µM | – | – | > 100 µM | – | – | – | – | – | – | – | – | –
18 | O=C1C/C(Br)=C\c2ccccc2-c2ccccc21 | 7.52 µM | 16.8 µM | 14.5 µM | 4.8 µM | 5.27 µM | 9.65 µM | 8.28 µM | – | – | 2.92 µM | – | – | – | – | – | – | – | – | –
19 | O=C1c2cccc3cccc(c23)C(=O)N1CCN(CCO)CCO | > 100 µM | > 100 µM | 62.3 µM | 74.3 µM | 46.8 µM | 90.6 µM | 56.6 µM | – | – | > 100 µM | – | – | – | – | – | – | – | – | –
20 | FC(F)(F)c1ccc2nc(NCc3ccccc3)c(-c3ccccc3)nc2c1 | > 100 µM | > 100 µM | > 100 µM | > 100 µM | – | – | > 100 µM | – | – | – | – | – | – | – | – | – | – | – | –
21 | COc1ccc2c(=O)oc3c(OC)cc(CCN(C)C)c4c(=O)oc1c2c34 | 30 µM and 19.8 µM | 27.6 µM | 37.1 µM and 16.7 µM | 27.7 µM and 15.6 µM | 31.2 µM and 18.2 µM | 5.4 µM | 28.1 µM | 18 µM | 23.5 µM | 39.4 µM | 20.2 µM and 8.68 µM | – | – | – | – | – | – | – | –
22 | O/N=C1\CCCCC1C(NO)c1ccccc1 (configuration not stated) | > 100 µM | > 100 µM | > 100 µM | > 100 µM | > 100 µM | > 100 µM | > 100 µM | – | – | > 100 µM | – | – | – | – | – | – | – | – | –
23 | O=C1C=C(c2c(O)ccc3ccccc23)c2cc(O)ccc2C1=O | 22.5 µM | 43.8 µM | 35.4 µM | 32.4 µM | 29.9 µM | > 100 µM | 38.7 µM | – | – | 37.6 µM | – | – | – | – | – | – | – | – | –
24 | CCCCCCCCCCCC[N+]12CC[N+](CCN)(CC1)CC2 | > 100 µM | > 100 µM | 39.7 µM | > 100 µM | > 100 µM | > 100 µM | > 100 µM | – | – | > 100 µM | – | – | – | – | – | – | – | – | –
